From the NIST ThermoML archive (doi:10.1016/j.jct.2011.07.014)
± gives the expanded uncertainty stated by the source.

Settings: Liquid, Transpiration method

CC(=O)CCC(=O)O [4-oxopentanoic acid]
Settings | vapor or sublimation pressure [kPa]
328.4 K | 0.00705 ± 0.00038
333.4 K | 0.01045 ± 0.00054
338.3 K | 0.01414 ± 0.00074
343.3 K | 0.02096 ± 0.0011
343.4 K | 0.02019 ± 0.001
348.3 K | 0.02702 ± 0.0014
353.3 K | 0.0381 ± 0.002
358.3 K | 0.05278 ± 0.0027
358.4 K | 0.05148 ± 0.0027
363.4 K | 0.07587 ± 0.0039
368.4 K | 0.101 ± 0.0052
373.4 K | 0.1349 ± 0.0069
